Where “and” joins values, the source holds several entries; their conditions need not be identical. Equal values may be shown once.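 Exposure lasted 48 hours, with cells grown in 96-well plates and compounds tested at five concentrations. GI50 = concentration required for 50% inhibition of growth. TGI marks complete inhibition of growth.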
Key:
Test in all cases: inhibition of tumour cell growth, NCI panel, 48 h
786-0 renal = test system: 786-0 renal
A549 NSCLC = test system: A549 NSCLC
ACHN renal = test system: ACHN renal
CAKI-1 renal = test system: CAKI-1 renal
CCRF-CEM leukemia = test system: CCRF-CEM leukemia
COLO 205 colon = test system: COLO 205 colon
DLD-1 colon = test system: DLD-1 colon
DMS 114 small cell lung = test system: DMS 114 small cell lung
DMS 273 small cell lung = test system: DMS 273 small cell lung
EKVX NSCLC = test system: EKVX NSCLC
HCC-2998 colon = test system: HCC-2998 colon
HCT-116 colon = test system: HCT-116 colon
HCT-15 colon = test system: HCT-15 colon
HOP-18 NSCLC = test system: HOP-18 NSCLC
HOP-62 NSCLC = test system: HOP-62 NSCLC
HOP-92 NSCLC = test system: HOP-92 NSCLC
HT29 colon = test system: HT29 colon
IGROV1 ovarian = test system: IGROV1 ovarian
K-562 leukemia = test system: K-562 leukemia
KM12 colon = test system: KM12 colon
KM20L2 colon = test system: KM20L2 colon
LOX IMVI melanoma = test system: LOX IMVI melanoma
LXFL 529 NSCLC = test system: LXFL 529 NSCLC
M14 melanoma = test system: M14 melanoma
MALME-3M melanoma = test system: MALME-3M melanoma
MOLT-4 leukemia = test system: MOLT-4 leukemia
NCI-H226 lung = test system: NCI-H226 lung
NCI-H23 lung = test system: NCI-H23 lung
NCI-H460 lung = test system: NCI-H460 lung
NCI-H522 lung = test system: NCI-H522 lung
OVCAR-3 ovarian = test system: OVCAR-3 ovarian
OVCAR-4 ovarian = test system: OVCAR-4 ovarian
OVCAR-8 ovarian = test system: OVCAR-8 ovarian
RPMI-8226 leukemia = test system: RPMI-8226 leukemia
RXF 393 renal = test system: RXF 393 renal
SF-268 CNS = test system: SF-268 CNS
SF-295 CNS = test system: SF-295 CNS
SF-539 CNS = test system: SF-539 CNS
SK-MEL-2 melanoma = test system: SK-MEL-2 melanoma
SK-MEL-28 melanoma = test system: SK-MEL-28 melanoma
SK-MEL-5 melanoma = test system: SK-MEL-5 melanoma
SK-OV-3 ovarian = test system: SK-OV-3 ovarian
SN12C renal = test system: SN12C renal
SNB-19 CNS = test system: SNB-19 CNS
SNB-75 CNS = test system: SNB-75 CNS
SNB-78 CNS = test system: SNB-78 CNS
SR leukemia = test system: SR leukemia
SW-620 colon = test system: SW-620 colon
TK-10 renal = test system: TK-10 renal
U251 CNS = test system: U251 CNS
UACC-257 melanoma = test system: UACC-257 melanoma
UACC-62 melanoma = test system: UACC-62 melanoma
UO-31 renal = test system: UO-31 renal

For `COc1cc(C2c3cc4c(cc3[C@@H](NCCN3CCOCC3)C3COC(=O)[C@H]23)OCO4)cc(OC)c1O` (stereo partly specified), the TGI (786-0 renal) was 5.11 µM and 7.93 µM, the GI50 (A549 NSCLC) was 0.314 µM and 0.761 µM and the TGI (A549 NSCLC) was 2.64 µM and 4.28 µM. The GI50 (ACHN renal) was 0.264 µM and 0.679 µM, the TGI (ACHN renal) was 1.34 µM and 2.84 µM and the TGI (CAKI-1 renal) was > 75 µM. The TGI (CCRF-CEM leukemia) was > 75 µM, the GI50 (COLO 205 colon) was 8.01 µM and 1.95 µM and the TGI (COLO 205 colon) was 19.4 µM and > 17.5 µM. The TGI (DLD-1 colon) was 22.8 µM and > 17.5 µM, the GI50 (DMS 114 small cell lung) was 1.43 µM and 2.95 µM and the TGI (DMS 114 small cell lung) was 5.05 µM and 8.98 µM. The TGI (DMS 273 small cell lung) was 7.72 µM and 5.44 µM, the TGI (EKVX NSCLC) was 54.4 µM and > 17.5 µM and the TGI (HCC-2998 colon) was 11.5 µM and 7.24 µM. The TGI (HCT-116 colon) was 15.8 µM and > 17.5 µM, the TGI (HCT-15 colon) was 15.7 µM and 14.2 µM and the TGI (HOP-18 NSCLC) was 32.9 µM and > 17.5 µM. For the same compound, the TGI (HOP-62 NSCLC) was 2.71 µM and 3.8 µM, the TGI (HOP-92 NSCLC) was 4.73 µM and 10.4 µM and the TGI (HT29 colon) was 18.1 µM and > 17.5 µM. For the same compound, the TGI (IGROV1 ovarian) was 22.4 µM and > 17.5 µM, the TGI (K-562 leukemia) was > 75 µM and the TGI (KM12 colon) was 12.1 µM and > 17.5 µM. For the same compound, the TGI (KM20L2 colon) was 16.7 µM and > 17.5 µM, the TGI (LOX IMVI melanoma) was 7.95 µM and 5.02 µM and the TGI (LXFL 529 NSCLC) was 34.1 µM and > 17.5 µM. The TGI (M14 melanoma) was 11.7 µM and > 17.5 µM, the TGI (MALME-3M melanoma) was 11.2 µM and 14.2 µM and the GI50 (MOLT-4 leukemia) was 0.137 µM and 0.402 µM. For the same compound, the TGI (MOLT-4 leukemia) was 4.48 µM and 4.87 µM, the GI50 (NCI-H226 lung) was 0.155 µM and 0.385 µM and the TGI (NCI-H226 lung) was 1.29 µM and 1.64 µM. For the same compound, the GI50 (NCI-H23 lung) was 1.17 µM and 2.45 µM, the TGI (NCI-H23 lung) was 4.89 µM and 7.21 µM and the GI50 (NCI-H460 lung) was 0.051 µM and 0.174 µM. For the same compound, the TGI (NCI-H460 lung) was 1.26 µM and 2.4 µM, the TGI (NCI-H522 lung) was 13.1 µM and 9.66 µM and the TGI (OVCAR-3 ovarian) was 21.5 µM and 14.3 µM. For the same compound, the TGI (OVCAR-4 ovarian) was 39.3 µM and > 17.5 µM, the TGI (OVCAR-8 ovarian) was 11.9 µM and the GI50 (RPMI-8226 leukemia) was 0.855 µM and 1.81 µM. For the same compound, the TGI (RPMI-8226 leukemia) was 6.58 µM and 9.59 µM, the TGI (RXF 393 renal) was 9.33 µM and 10.4 µM and the TGI (SF-268 CNS) was 10.2 µM. The TGI (SF-295 CNS) was 13.5 µM and 17.4 µM, the TGI (SF-539 CNS) was 2.53 µM and 3.58 µM and the TGI (SK-MEL-2 melanoma) was 14.5 µM and 11.3 µM. For the same compound, the TGI (SK-MEL-28 melanoma) was 16.6 µM and > 17.5 µM, the GI50 (SK-MEL-5 melanoma) was 0.877 µM and 2.77 µM and the TGI (SK-MEL-5 melanoma) was 1.88 µM and 12.7 µM. For the same compound, the GI50 (SK-OV-3 ovarian) was 1.49 µM and 3.36 µM, the TGI (SK-OV-3 ovarian) was 5.89 µM and 11.3 µM and the GI50 (SN12C renal) was 0.764 µM and 2.13 µM. For the same compound, the TGI (SN12C renal) was 4.06 µM and 7.9 µM, the TGI (SNB-19 CNS) was > 75 µM and the TGI (SNB-75 CNS) was 1.8 µM and 11.6 µM. The TGI (SNB-78 CNS) was > 75 µM, the GI50 (SR leukemia) was 0.0227 µM and 0.0625 µM and the TGI (SR leukemia) was 11.1 µM and 1.3 µM. For the same compound, the TGI (SW-620 colon) was 18.5 µM and > 17.5 µM, the TGI (TK-10 renal) was 21.7 µM and > 17.5 µM and the TGI (U251 CNS) was 5.46 µM and 5.53 µM. For the same compound, the TGI (UACC-257 melanoma) was 32.9 µM and > 17.5 µM, the TGI (UACC-62 melanoma) was 4.99 µM and 6.06 µM and the TGI (UO-31 renal) was 5.13 µM and 6.38 µM.
